The record followed here is the OligoGym collection.

This data set addresses MALAT1. To be noted: ASO, A431, 0.005 µM.

Where “and” joins values, the source holds several entries; their conditions need not be identical. Equal entries are not always repeated. After the bases stand the sugars from the 5' end (letter, count) and the backbone: PS all phosphorothioate, else s phosphorothioate and o phosphodiester by linkage. Methylation of C is not given here. k = constrained ethyl (cEt); d = 2'-deoxy (DNA)

For ATAAGGTCAATAGTGT (sugars k3 d10 k3, PS), the target mRNA inhibition was 38%.

For AACTAAGCTACTATAT (sugars k3 d10 k3, PS), the target mRNA inhibition was -2%. In the case of GTTGAGGCAAGTCCTC (sugars k3 d10 k3, PS), the target mRNA inhibition was 3%.

In the case of CCTTTCATAGAGCCTT (sugars k3 d10 k3, PS), the target mRNA inhibition was 69% and 90%. The value for CAGGCTGGTTATGACT (sugars k3 d10 k3, PS) was 26%; that for CTATTCTTTTCTTCGC (sugars k3 d10 k3, PS) was 37%.

Regarding GTATTATAATAGAGCT (sugars k3 d10 k3, PS), the target mRNA inhibition came out at 4%.

TCTCAACCTCCGTCAT (sugars k3 d10 k3, PS): the target mRNA inhibition worked out at 27%.

As to GCTACTTAGCTGTGGT (sugars k3 d10 k3, PS), the target mRNA inhibition was found to be 28%. For the sequence CCCACGGCCCGCACGG (sugars k3 d10 k3, PS), the target mRNA inhibition was 14%. The value for GCACTGATCACTTTAG (sugars k3 d10 k3, PS) was 63% and 47% and 50%; that for CCAAAAGCCTTCTGCC (sugars k3 d10 k3, PS) was 34%.

In the case of ATACTTCTCCAATACT (sugars k3 d10 k3, PS), the target mRNA inhibition is -15%.

As to TTTTTACCAACCACTC (sugars k3 d10 k3, PS), the target mRNA inhibition is 26%. The value for GTTACACCTTGAGTCA (sugars k3 d10 k3, PS) was 53%; that for ACAAAACCCCCGGAAC (sugars k3 d10 k3, PS) was -153%. The value for CAATGCCTACCGCACA (sugars k3 d10 k3, PS) was 16%; that for ATGGAAAGCGAGTTCA (sugars k3 d10 k3, PS) was 14%.

Consider AGAGTGTTCGCAGACA (sugars k3 d10 k3, PS), for which the target mRNA inhibition came out at 57%. For the sequence AGCTGTCAATTAATGC (sugars k3 d10 k3, PS), the target mRNA inhibition is 10%. Take CGCCATGGAAAGCGAG (sugars k3 d10 k3, PS): the target mRNA inhibition was determined as 20%. The value for CAGTTACTCCAGCATA (sugars k3 d10 k3, PS) was 24%.

For TCCTCTACGCACAACG (sugars k3 d10 k3, PS), the target mRNA inhibition stood at 11%. Turning to CGTCCTGGAAACCAGG (sugars k3 d10 k3, PS), the target mRNA inhibition is 21%.

For GAGTTCAAGTGGCCTT (sugars k3 d10 k3, PS), the target mRNA inhibition was 17%. Consider GACTTTCTCCCCCAAC (sugars k3 d10 k3, PS), for which the target mRNA inhibition came out at 6%. The result for AGCTGCAGGCTATTAC (sugars k3 d10 k3, PS) reads 39%. The value for GGTAATTACTCTTGAT (sugars k3 d10 k3, PS) was 50%. As for TGCTTGGGAAATCTTA (sugars k3 d10 k3, PS), the target mRNA inhibition is 23%. In the case of ATAACTGATCTGACTT (sugars k3 d10 k3, PS), the target mRNA inhibition is -5%. The value for TATGGATCATGCCCAC (sugars k3 d10 k3, PS) was 27%.

As to GCTGAGGCTTCCCGGC (sugars k3 d10 k3, PS), the target mRNA inhibition was determined as 15%.

Turning to CCTTTGTGAGGGAGGC (sugars k3 d10 k3, PS), the target mRNA inhibition is -5%.

ACAACAAGTAAGCCCC (sugars k3 d10 k3, PS): the target mRNA inhibition is -7%. The result for TGATCTGCGGCCCCCC (sugars k3 d10 k3, PS) reads -50%; that for TGCGGCCCCCCAGTTG (sugars k3 d10 k3, PS), -6%. Turning to CTGCGCTTAAGAGGGC (sugars k3 d10 k3, PS), the target mRNA inhibition worked out at 34%. Regarding AGACAGACCTAAGGGA (sugars k3 d10 k3, PS), the target mRNA inhibition is 21%. Regarding AATTGGTAGCTTTCAT (sugars k3 d10 k3, PS), the target mRNA inhibition was 64% and 81%. For the sequence ATTACGCAACTGAGCC (sugars k3 d10 k3, PS), the target mRNA inhibition was 16%. As to CATATTTTGCCCCCAC (sugars k3 d10 k3, PS), the target mRNA inhibition is 15%. The result for CCCATAACTGATCTGA (sugars k3 d10 k3, PS) reads 42%. The result for TTCGAGAAATCGGAGC (sugars k3 d10 k3, PS) reads -11%. The value for ATGGCTTTGTCTCCGA (sugars k3 d10 k3, PS) was 15%; that for AATCTAAAAGCATTGC (sugars k3 d10 k3, PS) was 30%. On to CCCTCTAAGAGACATT (sugars k3 d10 k3, PS), for which the target mRNA inhibition was found to be 32%. For the sequence CAACAAGTAAGCCCCA (sugars k3 d10 k3, PS), the target mRNA inhibition was 0%. The result for TAAACGGGTCATCAAA (sugars k3 d10 k3, PS) reads 34%.

Turning to ATTTATTTCGGCTTCT (sugars k3 d10 k3, PS), the target mRNA inhibition was 71% and 90%. The result for AATACGACTGCTTAAA (sugars k3 d10 k3, PS) reads 30%; that for ATCTGCGGCCCCCCAG (sugars k3 d10 k3, PS), -8%. Take ACAGCTAAGATAGCAG (sugars k3 d10 k3, PS): the target mRNA inhibition worked out at 2%. The value for CCTATCTTCTCCAGTC (sugars k3 d10 k3, PS) was -13%. Regarding AAACTAAGCTACTATA (sugars k3 d10 k3, PS), the target mRNA inhibition is -17%.

For the sequence AGATAGCAGCACAACT (sugars k3 d10 k3, PS), the target mRNA inhibition is -5%. Consider AACACCCGGAAATCGG (sugars k3 d10 k3, PS), for which the target mRNA inhibition stood at 26%. The value for CCCATTATATTAGAAA (sugars k3 d10 k3, PS) was 10%; that for ACTCTGATCTGCGGCC (sugars k3 d10 k3, PS) was 13%.

Turning to ATTGGTTACCAATAAT (sugars k3 d10 k3, PS), the target mRNA inhibition was found to be 4%. Consider ATAAGCACTTATCCCT (sugars k3 d10 k3, PS), for which the target mRNA inhibition turned out to be 50%. The value for CATTGGGAGTTACTTG (sugars k3 d10 k3, PS) was 32%.

As for GGTTTAAGTTGGTTTT (sugars k3 d10 k3, PS), the target mRNA inhibition was 90% and 97%. The value for CCTACTTTAAGCCTTC (sugars k3 d10 k3, PS) was 35%; that for CAGATGCAAGTTAAAC (sugars k3 d10 k3, PS) was 40%. The result for AAAGCCCACCCTCTAA (sugars k3 d10 k3, PS) reads -26%; that for ACGCTAAGCAATATCT (sugars k3 d10 k3, PS), 37%.

As for TTTGAACCCCGTCCTG (sugars k3 d10 k3, PS), the target mRNA inhibition is 6%. AAATTTCCTTAGTTGG (sugars k3 d10 k3, PS): the target mRNA inhibition is 54%.

With GTGAATTCAACTGGAA (sugars k3 d10 k3, PS), the target mRNA inhibition is 50%. The result for ACCAACTAAGCGAATG (sugars k3 d10 k3, PS) reads -12%; that for GCTAGGGAAAAGTGGT (sugars k3 d10 k3, PS), 5%; that for CTGAAGTCAAGACAAC (sugars k3 d10 k3, PS), -17%.

As to GATCTTGAATTACTTC (sugars k3 d10 k3, PS), the target mRNA inhibition was found to be 49%. The result for ATCCACTTCTGTGTAG (sugars k3 d10 k3, PS) reads 38%; that for TCTAACCCAGTTTGTC (sugars k3 d10 k3, PS), 31%. As to TCAATCCACTTGATCC (sugars k3 d10 k3, PS), the target mRNA inhibition was found to be 14%. The value for TTGTGAGGGAGGCAAA (sugars k3 d10 k3, PS) was 20%. The value for GTACATTTTGCCCTTA (sugars k3 d10 k3, PS) was 64% and 45%; that for GTCTACAAGTTACATG (sugars k3 d10 k3, PS) was 13%; that for GACAGTAGGTATAGTT (sugars k3 d10 k3, PS) was -13%.

With GAGGGACAGTAGGTAT (sugars k3 d10 k3, PS), the target mRNA inhibition was found to be 19%. On to GCCTTTGTGAGGGAGG (sugars k3 d10 k3, PS), for which the target mRNA inhibition was -23%. Regarding CCCCAAGACCAAACTG (sugars k3 d10 k3, PS), the target mRNA inhibition was -9%.

As for CAAGGCACTGATCACT (sugars k3 d10 k3, PS), the target mRNA inhibition stood at 48%.

For the sequence AGTTTATCTGCAATCA (sugars k3 d10 k3, PS), the target mRNA inhibition was 46% and 59%. In the case of GCTTTAAATGACGCAA (sugars k3 d10 k3, PS), the target mRNA inhibition was -22%. The result for CTCACGGATTTTTACC (sugars k3 d10 k3, PS) reads 7%; that for GCGAGTTCAAGTGGCC (sugars k3 d10 k3, PS), -5%. The value for TTCGGATGCTTCACTC (sugars k3 d10 k3, PS) was 48%; that for TCCCCCAACTGCTTGC (sugars k3 d10 k3, PS) was 11%; that for CCTTAGTTGGCATCAA (sugars k3 d10 k3, PS) was 82% and 63%. For the sequence ACCACGAACTGCTGCT (sugars k3 d10 k3, PS), the target mRNA inhibition was 52%.

For TATAGTTTACCACCTT (sugars k3 d10 k3, PS), the target mRNA inhibition came out at 14%. As to TACTGCATTTACTTGC (sugars k3 d10 k3, PS), the target mRNA inhibition came out at 20%. The result for ACAGCTTATGGAACTT (sugars k3 d10 k3, PS) reads 27%; that for TAAGCCTTCGGTGCCT (sugars k3 d10 k3, PS), 4%. With GCTTATGGAACTTGAA (sugars k3 d10 k3, PS), the target mRNA inhibition came to 10%. The value for GAATTAAGACCAAGGG (sugars k3 d10 k3, PS) was 36%; that for CTCTAATCACTGTCAA (sugars k3 d10 k3, PS) was 11%.
